# Where two headings read alike, the source gives them in different places.
# Columns and labels:
# [1] = test system: PC-3 cells; assay: Cytotoxic effect of recombinant e-rCN3 protein; type: cell-based, human; conditions: 5 μM applied twice for 6 hours with an interval of 16 hours
# Description: (§1) The growth inhibition effect of recombinant e-rCN3 protein was studied with five human cell lines, including the human colon cancer cell line CC-M1, the human breast cancer cell line MCF-7, two human prostate cancer cell lines PC-3 and DU145, and the human prostate epithelium cell line PZ-HPV-7. […] The cytotoxicity assay were performed using MTT method as described by Monks et al. (J. National Cancer Institute 83:757-767 (1991)) or using cell counting-based Hemocytometer method (R. Ian Freshney, WILEY-LISS: 186, 309-312 (2000)) as described in Example 3 and Example 9. Five micromolar (μM) e-rCN3 was applied twice on three prostate cell lines for 6 hours with an interval of 16 hours, while the human colon cancer cell and breast cancer cells were treated with three cycles.
# [2] = test system: CC-M1 cells; assay: Cytotoxic effect of recombinant e-rCN3 protein; type: cell-based, human; conditions: 5 μM, three treatment cycles
# Description: as §1
# [3] = test system: PZ-HPV-7 cells; assay: Cytotoxic effect of recombinant e-rCN3 protein; type: cell-based, human; conditions: 5 μM applied twice for 6 hours with an interval of 16 hours
# Description: as §1
# [4] = test system: MCF-7 cells; assay: Cytotoxic effect of recombinant e-rCN3 protein; type: cell-based, human; conditions: 5 μM, three treatment cycles
# Description: as §1
# [5] = test system: H520 stable transfectants; assay: Chemosensitivity (MTT cytotoxicity) of stable transfectants; type: cell-based; conditions: Homo sapiens, read-out: IC50 of chemical agent
# Excerpt: (§2) Three human cancer cell lines, including lung cancer cell line H520 and two human prostate cancer cell lines (PC-3 and DU145) were applied for selection of stable transfectants. Four expression plasmids, including pNCRMP1, pNCN1, pNCN3, and pNCN4, and the pCI-neo vector (as control plasmid) were used for transfection, respectively. The general cultivation condition and transfection procedures were the same as described in Example 3. The transfected cells were further cultivated under the same conditions as their parental cell lines and selected with 0.6-1 mg antibiotic G418 per ml (Kao et al., Oncogene 16: 546-554 (1998); Xiaolin et al, Cancer Research 65: 9762-9770 (2005)).
# (§3) Three agents, including caffeic acid phenethyl ester (CAPE; Sigma, US), Adriamycin™ (doxorubicin) (Pharmacia & Upjohn S.P.A. Milan, Italy), and paclitaxel (Taxol; Bristol-Myers Squibb Co., Wallingford, Conn.), were dissolved in DMSO (dimethyl sulfoxide; Sigma) for preparation of stock solution, respectively. A serial dilution was prepared with DPBS buffer for chemosensitivity tests. The human lung squamous carcinoma stable transfectants H520 were treated with both CAPE and Adriamycin™ (doxorubicin) for four different concentrations, e.g. 0.05, 0.01, 0.002, and 0.0004 mM, while the administering of paclitaxel was performed at different concentrations, e.g. 1000, 200, 40, and 8 nM. Both types of prostate stable transfectants were only treated with paclitaxel for eight concentrations ranging from 0.1 mM to 1.28 nM with 1/5 dilution each step.
# (§4) MTT (3-(4,5-dimethylthiazol-2-yl)-2,5-diphenyltetrazolium bromide; Sigma, Inc.) assay (Monks et al., J. Natl. Cancer Inst. 83:757-766 (1991); Paull et al, J. Natl. Cancer Inst. 81:1088-1092 (1989)) was applied for studying the cytotoxic effect of indicated agent. The absorbance was measured both at 545 nm and at 690 nm (served as reference) using the 96-well spectrophotometer reader (Emax, Molecular Device Inc., California, US) (Chen et al., Yi Xue Za Zhi (Taipei) 46:7-16 (1990)). The relative growth inhibition was calculated as follows: Relative growth inhibition=100%×(1−(OD545nm (Treated cells)−OD690nm(Treated cells))÷(OD545nm(untreated cells)−OD690nm(untreated cells)))
# (§5) The 50% inhibition concentration (IC50) was determined after graphical plotting of spectrophotometric measurements and interpolation by EXCEL software.
# [6] = test system: DU145 stable transfectants; assay: as above; type: cell-based; conditions: Homo sapiens, read-out: IC50 of chemical agent
# Excerpt: as §2, §3, §4, §5
# [7] = test system: MCF-7 transient transfectants; assay: Chemosensitivity of transient transfectants (cell counting); type: cell-based; conditions: Homo sapiens, MCF7, 72 h, read-out: IC50 of chemical agent
# Description: (§6) Six human cancer cell lines, including human colon cancer cell lines Caco-2, CC-M1, DLD-1; human prostate cancer cell lines DU145, PC-3; and human breast cancer cell line MCF-7, were tested in an experiment on improvement of chemosensitivity. Two expression plasmids, pNCRMP1 and pNCN3, and the pCI-neo vector (control plasmid), were used for transfection, respectively. The general cultivation conditions and transfection procedures were the same as described in Example 3.
# (§7) Treatment of transient transfected cell lines using chemical agent was immediately performed as follows, and quantification of viable cells was performed by counting using hemocytometer after 3-days incubation at 37° C.: • (1) Three types of transient transfected human colorectal cancer cells were treated with 5-fluorouracil; • (2) The transient transfected human prostate cancer cell line DU145 was treated with Adriamycin™ (doxorubicin), cyclophosphamide and etoposide; • (3) The transient transfected human prostate cancer cell line PC3 was treated with cyclophosphamide, etoposide, and paclitaxel; and, • (4) The transient transfected human breast cancer cell line MCF-7 was treated with Adriamycin™ (doxorubicin) and paclitaxel.
# [8] = test system: PC-3 transient transfectants; assay: as above; type: cell-based; conditions: Homo sapiens, 72 h, read-out: IC50 of chemical agent
# Description: as §6, §7
# [9] = test system: PZ-HPV-7 cells; assay: Chemosensitivity (MTT cytotoxicity) assay; type: cell-based; conditions: Homo sapiens; PZ-HPV-7, MTT; read-out: IC50 of chemical agent
# Description: Three agents, including caffeic acid phenethyl ester (CAPE; Sigma, US), Adriamycin™ (doxorubicin) (Pharmacia & Upjohn S.P.A. Milan, Italy), and paclitaxel (Taxol; Bristol-Myers Squibb Co., Wallingford, Conn.), were dissolved in DMSO (dimethyl sulfoxide; Sigma) for preparation of stock solution, respectively. A serial dilution was prepared with DPBS buffer for chemosensitivity tests. […] Both types of prostate stable transfectants were only treated with paclitaxel for eight concentrations ranging from 0.1 mM to 1.28 nM with 1/5 dilution each step.
"IC50 ([7]; transient transfectant MCF-7/pCIneo (control plasmid), 3-days incubation) [nM]","IC50 ([7]; transient transfectant MCF-7/pNCN3, 3-days incubation) [nM]","IC50 ([7]; transient transfectant MCF-7/pNCRMP1, 3-days incubation) [nM]","IC50 ([8]; transient transfectant PC-3/pCIneo (control plasmid), 3-days incubation) [nM]","IC50 ([8]; transient transfectant PC-3/pNCN3, 3-days incubation) [nM]","IC50 ([8]; transient transfectant PC-3/pNCRMP1, 3-days incubation) [nM]",Compound,growth inhibition effect [1],growth inhibition effect [2],growth inhibition effect [3],growth inhibition effect [4],"IC50 ([5]; NCI-H520, stable transfectant H520/pCI-neo/1 (control plasmid), MTT) [nM]","IC50 ([5]; NCI-H520, stable transfectant H520/pNCN1/1, MTT) [nM]","IC50 ([5]; NCI-H520, stable transfectant H520/pNCN3/1, MTT) [nM]","IC50 ([5]; NCI-H520, stable transfectant H520/pNCN4/1, MTT) [nM]","IC50 ([5]; NCI-H520, stable transfectant H520/pNCRMP1/1, MTT) [nM]","IC50 ([6]; DU-145, stable transfectant DU145/pCI-neo/7 (control plasmid), MTT) [nM]","IC50 ([6]; DU-145, stable transfectant DU145/pNCRMP1/2, MTT) [nM]",IC50 [9] [nM]
,,,,,,e-rCN3: recombinant CN3 domain of hCRMP-1 (amino acids 208 to 480) expressed in E. coli from pE22bCN3,approximately 40%,over 60%,no growth inhibition effect,over 60%,,,,,,,,
< 1,44,< 1,87,10,69,CC(=O)O[C@H]1C(=O)[C@@]2(C)[C@H]([C@H](OC(=O)c3ccccc3)[C@]3(O)C[C@H](OC(=O)[C@H](O)[C@@H](NC(=O)c4ccccc4)c4ccccc4)C(C)=C1C3(C)C)[C@]1(OC(C)=O)CO[C@@H]1C[C@@H]2O [paclitaxel],,,,,31,12,< 8,< 8,12,8000,20,6530

# Reference: patent US7741464B2, “Compositions and methods of using CRMP-1 and its fragments for treating cancer” (Advpharma Inc., priority 2007, dated 2010)
